Reference: the supplement of paper PMC10307832

How the values were obtained:
Experiment in all cases: relative viability (nuclei count vs DMSO), 5 days (fraction); higher = more cells survive
Adavosertib + AZD7762 = compound: C=CCn1c(=O)c2cnc(Nc3ccc(N4CCN(C)CC4)cc3)nc2n1-c1cccc(C(C)(C)O)n1 [Adavosertib] + NC(=O)Nc1cc(-c2cccc(F)c2)sc1C(=O)N[C@H]1CCCNC1 [AZD7762] (partner 0.2 µM)
In short: (§1)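 A single step with final 0.05% Triton X-100, 1% formaldehyde and 1 ug/ml Hoechst fixed the cells and stained nuclei 5 days after treatment. Lung cancer cell lines in 1536-well plates had been treated by pin tool the day after seeding with one drug alone or a fixed anchor-drug dose plus five library-drug doses (not always all listed) in √10 steps, and nuclei were counted on 4× images. Relative viability is the ratio of nuclei in treated wells to nuclei in vehicle wells, taken as the median of duplicate plates.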

Nelarabine + Palbociclib = compound: COc1nc(N)nc2c1ncn2[C@@H]1O[C@H](CO)[C@@H](O)[C@@H]1O [Nelarabine] + CC(=O)c1c(C)c2cnc(Nc3ccc(N4CCNCC4)cn3)nc2n(C2CCCC2)c1=O [Palbociclib] (partner 0.5 µM)
In short: as §1

[1] = compound: C=CCn1c(=O)c2cnc(Nc3ccc(N4CCN(C)CC4)cc3)nc2n1-c1cccc(C(C)(C)O)n1 [Adavosertib] + CC(=O)c1c(C)c2cnc(Nc3ccc(N4CCNCC4)cn3)nc2n(C2CCCC2)c1=O [Palbociclib] (partner 0.5 µM)
In short: as §1

Adavosertib + Luminespib = compound: C=CCn1c(=O)c2cnc(Nc3ccc(N4CCN(C)CC4)cc3)nc2n1-c1cccc(C(C)(C)O)n1 [Adavosertib] + CCNC(=O)c1noc(-c2cc(C(C)C)c(O)cc2O)c1-c1ccc(CN2CCOCC2)cc1 [Luminespib] (partner 0.01 µM)
In short: as §1

Row | Cell Line | relative viability (Adavosertib + AZD7762; first compound 0.01 µM) | relative viability (Adavosertib + AZD7762; first compound 0.03162 µM) | relative viability (Adavosertib + AZD7762; first compound 0.1 µM) | relative viability (Adavosertib + AZD7762; first compound 0.3162 µM) | relative viability (Nelarabine + Palbociclib; first compound 0.01 µM) | relative viability (Nelarabine + Palbociclib; first compound 0.03162 µM) | relative viability (Nelarabine + Palbociclib; first compound 0.1 µM) | relative viability (Nelarabine + Palbociclib; first compound 0.3162 µM) | relative viability (Nelarabine + Palbociclib; first compound 1 µM) | relative viability ([1]; first compound 0.01 µM) | relative viability ([1]; first compound 0.03162 µM) | relative viability ([1]; first compound 0.1 µM) | relative viability ([1]; first compound 0.3162 µM) | relative viability (Adavosertib + Luminespib; first compound 0.01 µM) | relative viability (Adavosertib + Luminespib; first compound 0.03162 µM) | relative viability (Adavosertib + Luminespib; first compound 0.1 µM) | relative viability (Adavosertib + Luminespib; first compound 0.3162 µM)
1 | HCC-366 | 0.292 | 0.21 | 0.184 | 0.0419 | 0.632 | 0.272 | 0.473 | 0.453 | 0.416 | 0.396 | 0.388 | 0.471 | 0.329 | – | – | – | –
2 | HCC-78 | 0.512 | 0.603 | 0.564 | 0.368 | 0.433 | 0.41 | – | 0.484 | 0.46 | 0.531 | 0.525 | 0.508 | 0.428 | – | – | – | –
3 | NCI-H358 | 0.486 | 0.488 | 0.329 | 0.234 | 0.121 | 0.136 | 0.129 | 0.127 | 0.139 | 0.15 | 0.137 | 0.0992 | 0.128 | 0.28 | 0.307 | 0.454 | 0.359
4 | NCI-H23 | 0.227 | 0.143 | 0.118 | 0.142 | 0.54 | 0.51 | 0.43 | 0.503 | 0.634 | 0.503 | 0.53 | 0.419 | 0.219 | 0.217 | 0.252 | 0.233 | 0.21
5 | PC-14 | 0.261 | 0.289 | 0.224 | 0.0765 | 0.705 | 0.53 | 0.582 | 0.601 | 0.706 | 0.508 | 0.577 | 0.516 | 0.0749 | 0.151 | 0.165 | 0.219 | 0.141
6 | SW 900 | 0.559 | 0.422 | 0.281 | 0.175 | 0.567 | 0.604 | 0.504 | 0.6 | 0.593 | 0.403 | 0.633 | 0.567 | 0.538 | – | 0.195 | 0.169 | 0.156
7 | NCI-H1650 | – | – | – | – | 0.255 | 0.317 | 0.337 | 0.32 | 0.266 | 0.295 | 0.34 | 0.289 | 0.293 | 0.2 | 0.207 | 0.213 | 0.145
8 | H3255 | 0.824 | 0.854 | 0.721 | 0.559 | 0.327 | 0.292 | 0.311 | 0.315 | 0.355 | 0.317 | 0.341 | 0.333 | 0.32 | 0.801 | 1.03 | 0.937 | 0.95
9 | NCI-H1563 | – | – | – | – | – | – | – | – | – | – | – | – | – | 0.562 | 0.544 | 0.507 | 0.473
10 | UMC-11 | – | – | – | – | 0.361 | 0.269 | 0.318 | 0.332 | 0.351 | 0.326 | 0.339 | 0.348 | 0.351 | 1.02 | 0.936 | 1.15 | 1
11 | LOU-NH91 | 0.776 | 0.723 | 0.645 | 0.531 | 0.576 | 0.47 | 0.524 | 0.618 | 0.578 | 0.609 | 0.497 | 0.548 | 0.531 | 0.34 | 0.375 | 0.357 | 0.32
12 | HCC-44 | 0.989 | 0.971 | 1.02 | 0.902 | 0.985 | 0.955 | 0.978 | 0.984 | 0.944 | 0.989 | 1.01 | 1.03 | 0.966 | 0.982 | 1.01 | 0.968 | 1.3
13 | NCI-H1437 | 1.11 | 1.11 | 1.15 | 0.581 | 0.342 | 0.35 | 0.307 | 0.338 | 0.302 | 0.333 | 0.313 | 0.305 | 0.35 | 1.07 | 1.2 | 1.17 | 1.07
14 | HARA | 0.296 | 0.192 | 0.155 | 0.129 | 0.202 | 0.253 | 0.228 | 0.273 | 0.287 | 0.21 | 0.271 | 0.349 | 0.265 | 0.781 | 0.795 | 0.845 | 0.366
15 | NCI-H2085 | 0.995 | 0.909 | 0.731 | 0.409 | 0.479 | 0.437 | 0.479 | 0.459 | 0.431 | 0.479 | 0.458 | 0.519 | 0.577 | 0.61 | 0.411 | 0.46 | 0.35
16 | NCI-H322M | 0.472 | 0.427 | 0.387 | 0.337 | 0.382 | 0.499 | 0.475 | 0.473 | 0.495 | 0.439 | 0.479 | 0.417 | 0.463 | 0.764 | 0.789 | 0.57 | 0.398
17 | NCI-H1355 | 0.734 | 0.599 | 0.406 | 0.307 | 0.398 | 0.316 | 0.401 | 0.401 | 0.447 | 0.417 | 0.401 | 0.395 | 0.408 | 0.671 | 0.644 | 0.617 | 0.631
